According to patent US9969719B2, “Substituted 2-hydrogen-pyrazole derivative serving as anticancer drug” (CHIA TAI TIANQING PHARMACEUTICAL GROUP CO., LTD., priority 2015, dated 2018):
Like-named read-outs stand apart in the source and are kept apart here.

Key:
CDK4/cyclin D1 = molecular target: T1, CDK4/cyclin D1 (Homo sapiens, UniProt P11802); test: CDK4/cyclin D1 Lance Ultra enzyme assay; format: biochemical; details: 350 μM ATP, 180 minutes
T1 construct: purchased Life Technologies
Protocol: (§1) The experimental materials included CDK2/cyclin A, CDK4/cyclin D1, CDK6/cyclin D1 (Life Technologies); ULight-labeled polypeptide substrates, i.e., ULight-4E-BP1 and ULight-MBP (PerkinElmer); the europium-labeled antibody against anti-myelin basic protein and europium-labeled rabbit antibody (PerkinElmer); and Envision® Multilabel Plate Reader (PerkinElmer) used for signal detection.
(§2) The compounds to be tested were diluted three times so as to be at ten gradually varied concentrations.
(§3) The dilutions of the compounds were dissolved in enzyme buffer, respectively. The components of the buffer included 50 mM hydroxyethylpiperazine ethanesulfonic acid solution (pH 7.5), 1 mM ethylenediaminetetraacetic acid, 10 mM magnesium chloride, 0.01% Brij-35, and 2 mM dithiothreitol. After the reaction started, the OptiPlate 384-well plate was sealed with top heat-sealing film TopSeal-A and incubated at room temperature for 180 minutes. • The Enzyme Reaction System of CDK6/Cyclin D1
(§4) The stop buffer of the enzyme reaction was prepared by dissolving EDTA in a one-fold dilution of the assay buffer. The reaction was terminated at room temperature for 5 minutes. To each of the reaction systems of CDK2/cyclin A, CDK4/cyclin D1 and CDK6/cyclin D1 was added 5 μL assay mixture (provided with antibody the europium-labeled against anti-myelin basic protein and the europium-labeled rabbit antibody, respectively). They were incubated at room temperature for 60 minutes. The reaction signals were detected by the EnVision instrument according to the principle of time-resolved fluorescence resonance energy transfer.

CDK6/cyclin D1 = molecular target: T2, CDK6/cyclin D1 (Homo sapiens, UniProt Q00534); test: CDK6/cyclin D1 Lance Ultra enzyme assay; format: biochemical; details: 250 μM ATP, 180 minutes
T2 construct: purchased Life Technologies
T2 sequence (Q00534 whole entry): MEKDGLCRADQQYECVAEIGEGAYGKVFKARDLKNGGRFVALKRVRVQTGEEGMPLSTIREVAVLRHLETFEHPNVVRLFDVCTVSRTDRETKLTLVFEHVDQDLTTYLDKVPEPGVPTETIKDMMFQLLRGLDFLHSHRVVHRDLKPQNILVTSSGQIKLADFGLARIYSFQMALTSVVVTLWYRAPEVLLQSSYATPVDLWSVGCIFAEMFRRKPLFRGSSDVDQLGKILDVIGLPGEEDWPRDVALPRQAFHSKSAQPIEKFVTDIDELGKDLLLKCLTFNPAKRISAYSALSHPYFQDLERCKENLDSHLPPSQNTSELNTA
T2 sequence (P24385 whole entry partner): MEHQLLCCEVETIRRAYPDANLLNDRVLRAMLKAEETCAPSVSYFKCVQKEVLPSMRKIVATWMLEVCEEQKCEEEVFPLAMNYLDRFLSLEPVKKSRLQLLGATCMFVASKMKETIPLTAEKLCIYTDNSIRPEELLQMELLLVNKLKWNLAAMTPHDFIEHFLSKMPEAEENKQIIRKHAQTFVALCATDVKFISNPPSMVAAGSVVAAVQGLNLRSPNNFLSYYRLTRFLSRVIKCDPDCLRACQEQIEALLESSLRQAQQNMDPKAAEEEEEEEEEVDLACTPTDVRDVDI
Protocol: as §1, §2
as §3, with “minutes.” for “minutes. • The Enzyme Reaction System of CDK6/Cyclin D1”
as §4

CDK2/cyclin A = molecular target: T3, CDK2/cyclin A (Homo sapiens, UniProt P24941); test: CDK2/cyclin A Lance Ultra enzyme assay; format: biochemical; details: 25 μM ATP, 60 minutes
T3 construct: purchased Life Technologies
Protocol: as §1, §2
as §3, with “The gradient dilutions of” for “The dilutions of”, “temperature for 60 minutes. •” for “temperature for 180 minutes. •”, “System of CDK4/Cyclin D1” for “System of CDK6/Cyclin D1”
as §4

MCF-7 cells = test: MCF-7 cell proliferation (CellTiter-Glo, 6 days); format: cell-based, human; details: for IC50: Homo sapiens, MCF7, proliferation, 6 days; for MCF-7/MDA-MB-436: ratio of the proliferation IC50 values
Protocol: EnVision® Multilabel Plate Reader (PerkinElmer) was used.
MCF-7 cells were inoculated in a black 384-well plate by adding 45 μL of the cell suspension (containing 200 of MCF-7 cells) to each of the wells. The plate was incubated overnight in a carbon dioxide incubator.
(§5) A duplicate well test was performed. The medium was added to the middle plate in an amount of 49 μL per well. The gradient dilutions of the compounds were transferred in an amount of 1 μL per well to the middle plate at the corresponding positions, and the mixture was mixed and transferred to the cell plate in an amount of 5 μL per well. The cell plate was incubated in a carbon dioxide incubator for 6 days. Promega CellTiter-Glo reagent was added to the cell plate in an amount of 25 μL per well. The cell plate was incubated at room temperature for 10 minutes to stabilize the luminescence signal. EnVision® Multilabel Plate Reader (PerkinElmer) was used for signal detection.

MDA-MB-436 cells = test: MDA-MB-436 cell proliferation (CellTiter-Glo); format: cell-based; details: Homo sapiens
Protocol: RPMI 1640 medium, fetal bovine serum, penicillin/streptomycin were purchased from Promega (Madison, Wis.). The MCF-7 cell line and the MDA-MB-436 cell line were purchased from the European Collection of Authenticated Cell Cultures (ECACC). EnVision® Multilabel Plate Reader (PerkinElmer) was used.
as §5, with “The compounds to be tested were diluted three times using Bravo to the tenth concentration, i.e., diluted from 10 μM to 0.508 nM. A” for “A”
The IC50 values were obtained by curve fitting using four parameters (obtained from the 205 mode in XLFIT5, iDBS). Table 1 provides the inhibitory activities of the compounds of the invention against the proliferation of MCF-7 cells and MDA-MB-436 cells.

[1] = Study of brain permeability after oral administration; format: in vivo, SD rats
Protocol: SD rats were used as the test animals.
Twelve healthy 7- to 9-week-old adult male SD rats were purchased from Shanghai Slack Laboratory Animal Co., Ltd. A proper amount of the test compound was weighed to prepare a 0.5% methylcellulose suspension at 1 mg/mL. The rats received a single oral dose of 10 mg/kg. 0.5 h, 2 h, 8 h, and 24 hours after the administration, 3 rats were respectively killed, and their whole blood and brain tissues were collected. The plasma was prepared by centrifuging the whole blood (3000 g, 15 minutes, 4° C.). The samples of brain homogenate were prepared by mixing the brain tissues with a mixture of methanol and a phosphate buffer (methanol:phosphate buffer=1:2) as homogenate at a ratio of 5:1. The drug concentration of each sample was determined by LC/MS/MS, and AUC was calculated to evaluate the exposure.

[2] = tested on: human breast cancer cell line MCF-7; format: in vivo
Protocol: The in vivo pharmacodynamic study was carried out in human-based tumor cell line-derived xenografted (CDX) BALB/c nude mice, in which were subcutaneously implanted human breast cancer cell line MCF-7.
. All the cages, matts and water were disinfected before use. All the animals had free access to a standard certified commercial laboratory diet. A total of 100 mice were purchased from Shanghai BK Laboratory Animal Co., LTD for study. An estrogen tablet ([…], sustained release within 60 days) was subcutaneously implanted in the left next abdomen of each mice. After 3 days, the tumor cells (10×10^6 in 0.2 mL of phosphate buffer) were subcutaneously implanted in the right next abdomen of each mice for the tumor growth. The administration started when the average tumor volume reached about 150-200 mm^3. The test compounds were orally administered daily, the doses were shown as Table 5. The tumor volumes were measured with a two-dimensional caliper every three days, the volumes were expressed in cubic millimeters and calculated by the formula V=0.5a×b^2, wherein a and b were the major diameter and minor diameter of the tumor, respectively. Antitumor efficacy was determined by dividing an average increase of the tumor volumes of the animals treated with the compounds by an increase of the tumor volumes of the untreated animals.

[3] = Caco-2 cell bi-directional permeability assessment; details: human, Caco-2, pH 7.4
Protocol: (§6) The standard experimental conditions were as follows: • Test concentration: 2 μM (DMSO≤1%); • Number of replication: n=2; • Direction: bi-directional transportation, including two directions, i.e., A→B and B→A; • Incubation time: single time point, 2 hours; • Transport buffer: HBSS, pH 7.4; • Incubation conditions: 37° C., 5% CO2.
(§7) After the incubation, sample solutions taken from the dosing wells and the receiving wells were immediately mixed with a cold acetonitrile solution containing the internal standard. Concentrations of the test compounds in all samples (including the initial dosing solutions, the supernatants of the dosing wells and the receiving solutions) were determined by a LC/MS/MS method. The apparent permeability coefficients, the efflux ratios and other parameters were calculated.

Caco-2 monolayer cells [4] = test: Caco-2 cell bi-directional permeability assessment
Protocol: as §6, §7

Caco-2 monolayer cells [5] = tested on: Caco-2 monolayer cells
Protocol: as §6, §7

in vitro = details: human, Caco-2, pH 7.4
Protocol: as §6, §7

[6] = 10 mg/kg oral, time point 0.5 h
[7] = 50.0 mg/kg orally daily, 7th day
[8] = 50.0 mg/kg orally daily, 14th day
[9] = 50.0 mg/kg orally daily, 21st day
[10] = human, Caco-2, 2 h, 2 μM, pH 7.4

T1 sequence (P11802 whole entry): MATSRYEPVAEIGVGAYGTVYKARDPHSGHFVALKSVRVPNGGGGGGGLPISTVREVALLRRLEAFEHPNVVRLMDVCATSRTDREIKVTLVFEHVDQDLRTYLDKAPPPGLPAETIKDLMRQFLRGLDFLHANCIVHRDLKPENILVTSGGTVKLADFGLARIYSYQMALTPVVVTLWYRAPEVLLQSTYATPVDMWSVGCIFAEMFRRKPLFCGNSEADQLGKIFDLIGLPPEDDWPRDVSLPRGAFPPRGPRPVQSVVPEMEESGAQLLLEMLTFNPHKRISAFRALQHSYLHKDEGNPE
T1 sequence (P24385 whole entry partner): as the sequence (P24385 whole entry partner) above

Compound	IC50 (MCF-7 cells)	MCF-7/MDA-MB-436 (MCF-7 cells)	IC50 (MDA-MB-436 cells)	Exposure in brain [1, 6]	Exposure in brain ([1]; 10 mg/kg oral, time point 2 h)	Exposure in brain ([1]; 10 mg/kg oral, time point 8 h)	Tomor volumes ([2]; 50.0 mg/kg orally daily, 0 day)	Tomor volumes [2, 7]	Tomor volumes [2, 8]	Tomor volumes [2, 9]	Papp A→B at 2 h, 2 μM [3]	Papp B→A at 2 h, 2 μM [3]	Classification Permeability (Caco-2 monolayer cells [4]; Caco-2)	other results
CC(C)c1c2cc(-c3nc(Nc4ccc(N5CCN(CCC#N)CC5)cn4)ncc3F)ccc2nn1C [Example 7, 3-[4-[6-[[5-fluoro-4-(3-isopropyl-2-methyl-2H-indazol-5-yl)pyrimidin-2-yl]amino]-3-pyridyl]piperazin-1-yl]propanenitrile]	37.2 nM	31.1	1160 nM	1564 nmol/kg	2922 nmol/kg	307 nmol/kg	187 mm^3	271 mm^3	318 mm^3	350 mm^3	6.55 ×10⁻⁶ cm/s	3.38 ×10⁻⁶ cm/s	High	IC50 (CDK4/cyclin D1): 1.82 nM; IC50 (CDK6/cyclin D1): 4.52 nM; IC50 (CDK2/cyclin A): 12 nM; selectivity in inhibiting the proliferation of estrogen receptor positive breast cancer cells (MCF-7/MDA-MB-436) (MCF-7 cells; versus LY2835219, in words): higher selectivity; inhibitory activities against the proliferation of MCF-7 cells compared with the reference compounds (MCF-7 cells; versus Palbociclib and LY2835219, in words): higher inhibitory activities; exposure in brain after 8 hours ([1]; 10 mg/kg oral, in words): significantly decreased; exposure in brain tissue compared with the reference compounds ([1]; rat, versus Palbociclib and LY2835219, in words, b797: 0.5 hour and 2 hour): higher exposure; antitumor activities in the CDX model of MCF-7 breast cancer ([2]; in words): significant antitumor activities; efflux ratio at 2 h, 2 μM [3]: 0.52; Classification Substrates of efflux transporters (Caco-2 monolayer cells [4]; Caco-2): Unlikely; permeability compared with the reference compounds (Caco-2 monolayer cells [4]; Caco-2, versus Palbociclib and LY2835219, in words): higher permeability
CCN1CCN(Cc2ccc(Nc3ncc(F)c(-c4cc(F)c5nc(C)n(C(C)C)c5c4)n3)nc2)CC1 [LY2835219, Abemaciclib, reference compound]		17.3	1030 nM	62 nmol/kg	525 nmol/kg	774 nmol/kg	187 mm^3	261 mm^3	315 mm^3	443 mm^3	2.69 ×10⁻⁶ cm/s	6.34 ×10⁻⁶ cm/s	High	
CC(=O)c1c(C)c2cnc(Nc3ccc(N4CCNCC4)cn3)nc2n(C2CCCC2)c1=O [Palbociclib, reference compound]	87 nM	113	9840 nM	80 nmol/kg	329 nmol/kg	184 nmol/kg								Tomor volumes ([2]; 45.0 mg/kg orally daily, 0 day): 187 mm^3; Tomor volumes ([2]; 45.0 mg/kg orally daily, 7th day): 264 mm^3; Tomor volumes ([2]; 45.0 mg/kg orally daily, 14th day): 387 mm^3; Tomor volumes ([2]; 45.0 mg/kg orally daily, 21st day): 633 mm^3; tolerability of high doses in the animals ([2]; mouse, in vivo): intolerable; Classification Permeability (Caco-2 monolayer cells [5]; Caco-2): Medium; Average apparent permeability coefficient A to B (Caco-2 monolayer cells [5]; [10]): 9.18 10^−6 cm/s; Average apparent permeability coefficient B to A (Caco-2 monolayer cells [5]; [10]): 7.51 10^−6 cm/s; Papp A→B at 2 h, 2 μM (in vitro): 0.85 ×10⁻⁶ cm/s; Papp B→A at 2 h, 2 μM (in vitro): 16.5 ×10⁻⁶ cm/s
